Measured values reported in patent US8546382B2, “Methods for enhancing hematopoietic progenitor cell engraftment” (Children's Medical Center Corporation, priority 2009, dated 2013).
“Also recorded” adds a separate entry of the source.

How the values were obtained:
patients = patients treated with the PPARγ agonist; cited from earlier work
[1] = tested on: whole bone marrow collected from the DBA/1J mouse strain; test: Hematopoietic colony formation in methylcellulose (M3434) in the presence of PPAR gamma inhibitors; format: cell-based; details: 3 ml M3434 with 1.5 μL of working concentration of each compound; N=2
Method: Progenitor activity was measured by formation of hematopoietic colonies in methylcellulose (M3434) from whole bone marrow collected from the DBA/1J mouse strain. Cells were plated in 3 ml M3434 along with 1.5 μL of the working concentration of each compound.

[2] = tested on: bone marrow adipocyte formation; details: in vitro and in vivo in models of streptozotocin-induced diabetes; cited from earlier work
[3] = tested on: wild-type female FVB mice; test: BM transplantation in lethally irradiated wild-type mice with daily BADGE; format: in vivo, mouse
Method: BM transplants were performed in wild-type female FVB mice as described for FIG. 2 except that 30 mg/kg BADGE or control vehicle (DMSO 10%) were administered through daily intra-peritoneal injections from the day prior to irradiation until day 14 post-transplant. 4a. […] 4b. Colony forming unit assay (CFU) from the recovered donor BM.
Finally, it was tested whether pharmacologic antagonism of adipogenesis could enhance bone marrow engraftment in wild-type mice.
Thorax, tibias and tails for homeostasis studies were isolated from wildtype C57BL6/J mice. When BM transplantation was performed, B6.SJL-Ptprca Pep3b/BoyJ were used as donors to take advantage of the CD45.1/CD45.2 allelic system (Jackson Laboratories #0002014). Bone marrow transplantation and CFU-Spleen assays were performed on lethally irradiated mice (two 5.5Gy doses separated by 3 hrs) and cells were administered by tail vein injection within 24 hrs of lethal irradiation. For competitive transplantation, samples were competed against 250,000 recipient-matched competitor femoral bone marrow. FVB wildtype litter-mates mice were used as controls for FVB.A-ZIP/F1 fatless mice. During BM transplantation assays FVB or FVB.A-ZIP/F1 mice (CD45.1) received 200,000 MHC-matched (H^q) wildtype BM from DBA/1J mice (CD45.2). Secondary transplants were performed through recovery of the CD45.2 […] BM passed through the FVB wildtype or FVB.A-ZIP/F1 microenvironment, which was then transplanted into FVB (CD45.1) recipients together with 250,000 FVB (CD45.1) wildtype competitor BM cells. For pharmacological inhibition of adipocyte formation, BM transplants were performed in wild-type female FVB mice as described above, except that 30 mg/kg BADGE or control vehicle (DMSO 10%) were administered in daily intraperitoneal injections starting one day prior to irradiation and continuing until day 14 post-transplant. Solutions were made such that 500 mg BADGE (Fluka) was resuspended in 8.3 ml DMSO (Sigma) and diluted in PBS to a final concentration of 10% DMSO for administration at 30 mg/kg in 100 ul. Aliquots were stored at −20° C. and thawed daily. Multicolor flow cytometry was performed in a special order BD five-laser LSRII flow cytometer. Cell cycle analysis was performed with DAPI (Sigma) in cells fixed in 2% paraformaldehyde for 15 min at 4° C. For all statistical analysis an un-paired two-tailed Student's t-test was performed assuming experimental samples of equal variance. […]
Mice were lethally irradiated with 11-12Gy on a split dose separated by 2.5 h and BM transplants were performed within 24 h by tail-vein injection. Engraftment was measured monthly through eye bleed and FACS analysis with CD45.1-FITC (eBiosciences), CD45.2-PE or CD45.2-biotin, CD3-PE, CD19-PE, Mac-1-PE. […]

Wildtype BM = test: Colony forming unit (CFU) assay of wildtype BM plated with BADGE in vitro; format: cell-based, mouse; details: BADGE 30 mg/kg vs DMSO vehicle control (0.5 μL/mL); after 8-10 days
Method: 14a. Wildtype BM was plated in the presence of BADGE 30 mg/kg, or DMSO vehicle control (0.5 μL/mL).
Colony forming unit (CFU) assays were performed in complete M3434 methylcellulose (Stem Cell Technologies) following the manufacturer's instructions. Colonies were scored on day 8-10 on coded plates for unbiased counts.

SMILES: CN(CCOc1ccc(CC2SC(=O)NC2=O)cc1)c1ccccn1 (centres unmarked) [rosiglitazone]
- Adverse haematological effect in treated patients (patients): myelosuppression

SMILES: O=C(Nc1ccncc1)c1cc([N+](=O)[O-])ccc1Cl [T0070907, 2-chloro-5-nitro-N-4-pyridinyl-benzamide]
- Number of hematopoietic colonies relative to vehicle control [1]: fewer colonies relative to the vehicle control

SMILES: CC(C)(c1ccc(OCC2CO2)cc1)c1ccc(OCC2CO2)cc1 (centres unmarked) [BADGE, Bisphenol-A-DiGlycidyl-Ether]
- Bone marrow adipocyte formation [2]: prevent bone marrow adipocyte formation
- White blood cell (WBC) / leukocyte counts in peripheral blood in the post-transplant period ([3]; 30 mg/kg BADGE daily i.p. from day prior to irradiation until day 14 post-transplant, vs vehicle (DMSO 10%)): Higher peripheral blood leukocyte counts; also recorded: accelerated recovery
- Colony forming units (CFU) from the recovered donor BM ([3]; 30 mg/kg BADGE daily i.p., donor CD45.2 BM recovered day 17 post-transplant): enrichment in colony forming units
- BM adipocyte formation by H&E staining of femurs ([3]; BADGE for two weeks following BM transplantation, mice sacrificed day 17 post-transplant): successful inhibition of BM adipocyte formation
- Hematopoietic recovery after BM transplant ([3]; pharmacologic inhibition of adipocyte formation with BADGE): enhances hematopoietic recovery
- Ability to form CFUs (hematopoietic colony formation) in vitro (Wildtype BM): does not enhance hematopoietic colony formation; also recorded: No difference
